Source: patent US20060069132A1, “Azolecarboxamide herbicides” (priority 2004, published 2006)

Tests used:
[1] = test system: blackgrass; experiment: Test B postemergence herbicide test; assay type: in vivo, Alopecurus myosuroides; settings: for Plant response rating, Blackgrass: visual rating after 13 to 15 days
Summary of the method: (§1)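 Read-out: visual comparison with controls, scored 0 to 100, where 100 means complete control and 0 no effect. Formulated chemicals were applied postemergence to plants 2–18 cm tall (1- to 4-leaf), or to flooded-paddy plants at the 2-leaf stage, then held 13 to 15 days under glass.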

[2] = test system: small flower umbrella sedge; experiment: Test B flooded paddy test; assay type: in vivo, Cyperus difformis; settings: 1000 g ai/ha, scale 0 to 100 (0 no effect, 100 complete control)
Summary of the method: as §1

[3] = test system: bermudagrass; experiment: Test C pre-/postemergence herbicide test; assay type: in vivo, Cynodon dactylon; settings: for Bermudagrass plant response rating: Preemergence
Summary of the method: (§2)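 Visual injury scores run from 0 (no effect) to 100 (complete control), assessed relative to untreated controls 12 to 14 days after treatment in the greenhouse. Chemicals were formulated in a non-phytotoxic solvent mixture with surfactant and applied to soil after planting or to emerged plants at the 1- to 4-leaf stage.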

[4] = test system: woolly cupgrass; experiment: Test C pre-/postemergence herbicide test; assay type: in vivo, Eriochloa villosa; settings: for Cupgrass, Woolly plant response rating: Preemergence
Summary of the method: as §2

[5] = test system: goosegrass; experiment: Test C pre-/postemergence herbicide test; assay type: in vivo, Eleusine indica; settings: for Goosegrass plant response rating: Preemergence
Summary of the method: as §2

[6] = test system: rice; experiment: Test C flooded paddy test; assay type: in vivo, Oryza sativa; settings: for Plant response rating, Rice: 500 g ai/ha, visual rating after 12 to 14 days
Summary of the method: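 Injury scored visually against controls on a 0 (no effect) to 100 (complete control) scale, 12 to 14 days after treatment in greenhouse. Flooded paddy plants treated at 2-leaf stage; postemergence plants at 1- to 4-leaf stage, 2 to 18 cm tall.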

[7] = test system: barnyardgrass; experiment: Test A pre-/postemergence herbicide test; assay type: in vivo, Echinochloa crus-galli; settings: for Plant response rating, Barnyardgrass: Postemergence; for Barnyardgrass plant response rating: Preemergence
Summary of the method: (§3)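 Pre: seeded sandy loam, directed soil spray, compound in non-phytotoxic solvent + surfactant. Post: 1–2-leaf plants (2–10 cm), sprayed to runoff. Greenhouse ~10 d; visual injury vs untreated, 0–100 scale.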

[8] = test system: large crabgrass; experiment: Test A pre-/postemergence herbicide test; assay type: in vivo, Digitaria sanguinalis; settings: for Plant response rating, Crabgrass, Large: Postemergence; for Crabgrass, Large plant response rating: Preemergence
Summary of the method: as §3

[9] = test system: redroot pigweed; experiment: Test A pre-/postemergence herbicide test; assay type: in vivo, Amaranthus retroflexus; settings: for Plant response rating, Pigweed: Postemergence; for Pigweed plant response rating: Preemergence
Summary of the method: as §3

[10] = 125 g ai/ha, visual rating, scale 0 (no effect) to 100 (complete control), postemergence
[11] = postemergence, 500 g ai/ha, scale 0 to 100, 0 is no effect, 100 is complete control
[12] = Postemergence, 250 g ai/ha, scale 0 to 100, 0 no effect, 100 complete control
[13] = postemergence, 125 g ai/ha, scale 0 to 100
[14] = postemergence, 62 g ai/ha, scale 0 to 100
[15] = 125 g ai/ha, scale 0 to 100 (0 no effect, 100 complete control)
[16] = 250 g ai/ha, scale of 0 to 100, 0 is no effect, 100 is complete control
[17] = scale 0 to 100 (0 no effect, 100 complete control)
[18] = Postemergence, 500 g ai/ha, scale 0 (no effect) to 100 (complete control)
[19] = 62 g ai/ha, preemergence, scale 0 to 100, 0 no effect, 100 complete control
[20] = 250 g ai/ha, scale 0-100, preemergence
[21] = 500 g ai/ha, scale 0 to 100 (0 no effect, 100 complete control), visual, 12 to 14 days, preemergence
[22] = 62 g ai/ha, preemergence, scale 0 to 100
[23] = postemergence, 125 g ai/ha, visual rating, scale 0 (no effect) to 100 (complete control)
[24] = 125 g ai/ha, scale 0 (no effect) to 100 (complete control), visual, 12 to 14 days, preemergence
[25] = 500 g ai/ha, scale 0 to 100, 0 no effect, 100 complete control
[26] = 62 g ai/ha, scale 0 to 100 (0 no effect, 100 complete control)
[27] = 250 g ai/ha, scale 0 to 100 (0 no effect, 100 complete control), visual, 12 to 14 days, preemergence
[28] = 500 g ai/ha, 0 to 100 scale, 0 no effect, 100 complete control
[29] = 2000 g ai/ha, 0 to 100 scale, 0 no effect, 100 complete control
[30] = 500 g ai/ha, visual rating, 0 to 100 scale (0 no effect, 100 complete control)

Row | SMILES | Blackgrass plant response rating [1, 10] | Sedge, Umbrella plant response rating [2] | Rice plant response rating ([6]; 62 g ai/ha, scale 0 to 100) | Rice plant response rating [6, 15] | Rice plant response rating [6, 16] | Plant response rating, Rice [6, 17] | Plant response rating, Bermudagrass [3, 19] | Plant response rating, Bermudagrass [3, 20] | Plant response rating, Cupgrass, Woolly [4, 22] | Plant response rating, Cupgrass, Woolly [4, 20] | Plant response rating, Goosegrass [5, 22] | Plant response rating, Goosegrass [5, 20] | Blackgrass plant response rating [1, 23] | Sedge, Umbrella plant response rating ([2]; visual rating, 13 to 15 days) | Plant response rating, Bermudagrass [3, 24] | Bermudagrass plant response rating [3, 25] | Plant response rating, Cupgrass, Woolly [4, 24] | Cupgrass, Woolly plant response rating [4, 25] | Plant response rating, Goosegrass [5, 24] | Goosegrass plant response rating [5, 25] | also measured
1 | CCOC(=O)c1cccc(NC(=O)c2cc(C3(C)CC3)nn2CC)c1 [Compound 295] | 30 | 80 | 5 | 10 | 40 | 40 |  |  |  |  |  |  |  |  |  |  |  |  |  |  | Blackgrass plant response rating [1, 11]: 40; Plant response rating, Bermudagrass [3, 12]: 0; Plant response rating, Bermudagrass [3, 13]: 0; Plant response rating, Bermudagrass ([3]; postemergence, 31 g ai/ha, scale 0 to 100): 0; Plant response rating, Bermudagrass [3, 14]: 0; Plant response rating, Cupgrass, Woolly [4, 12]: 15; Plant response rating, Cupgrass, Woolly [4, 13]: 15; Plant response rating, Cupgrass, Woolly [4, 14]: 10; Plant response rating, Goosegrass [5, 12]: 50; Plant response rating, Goosegrass [5, 13]: 20; Plant response rating, Goosegrass [5, 14]: 20
2 | CCc1nn(C(C)C)nc1C(=O)Nc1cccc(C(=S)N(C)C)c1 [Compound 409] |  | 90 | 20 | 40 | 50 | 60 | 40 | 85 | 40 | 80 | 80 | 95 |  |  |  |  |  |  |  |  | Blackgrass plant response rating [1, 18]: 40; Blackgrass plant response rating [1, 13]: 10; Plant response rating (0 = no effect, 100 = complete control), Bermudagrass ([3]; 125 g ai/ha, preemergence): 50; Plant response rating, Bermudagrass [3, 21]: 85; Plant response rating (0 = no effect, 100 = complete control), Cupgrass, Woolly ([4]; 125 g ai/ha, preemergence): 55; Plant response rating, Cupgrass, Woolly [4, 21]: 80; Plant response rating (0 = no effect, 100 = complete control), Goosegrass ([5]; 125 g ai/ha, preemergence): 90; Plant response rating, Goosegrass [5, 21]: 95
3 | CCc1nn(C(C)C)nc1C(=O)Nc1cccc(C(=O)N(C)CC)c1 [Compound 386] | 0 | 80 | 25 | 65 | 70 | 75 | 90 | 95 | 50 | 95 | 85 | 95 |  |  |  |  |  |  |  |  | Blackgrass plant response rating [1, 11]: 40; Plant response rating (0 = no effect, 100 = complete control), Bermudagrass ([3]; 125 g ai/ha, preemergence): 95; Plant response rating, Bermudagrass [3, 21]: 95; Plant response rating (0 = no effect, 100 = complete control), Cupgrass, Woolly ([4]; 125 g ai/ha, preemergence): 90; Plant response rating, Cupgrass, Woolly [4, 21]: 95; Plant response rating (0 = no effect, 100 = complete control), Goosegrass ([5]; 125 g ai/ha, preemergence): 95; Plant response rating, Goosegrass [5, 21]: 95
4 | CCNC(=O)c1ccc(F)c(NC(=O)c2cn(C(C)(C)C)nc2CC)c1 [Compound 193] |  |  |  | 50 | 70 | 75 | 60 | 85 | 10 | 60 | 60 | 80 | 0 | 80 | 80 | 100 | 40 | 70 | 80 | 95 | Blackgrass plant response rating ([1]; postemergence, 500 g ai/ha, visual rating, scale 0 (no effect) to 100 (complete control)): 20; Rice plant response rating [6, 26]: 25
5 | C=CCn1nc(C(C)(C)C)cc1C(=O)Nc1cccc(C(=O)NCC)c1 [Compound 56] |  |  |  |  | 25 | 35 |  |  |  |  |  |  | 0 | 80 | 90 | 95 | 0 | 40 | 85 | 95 | Plant response rating, Blackgrass [1, 18]: 10; Plant response rating (0 = no effect, 100 = complete control), Bermudagrass ([3]; 62 g ai/ha, preemergence): 85; Plant response rating, Bermudagrass [3, 27]: 95; Plant response rating (0 = no effect, 100 = complete control), Cupgrass, Woolly ([4]; 62 g ai/ha, preemergence): 0; Plant response rating, Cupgrass, Woolly [4, 27]: 35; Plant response rating (0 = no effect, 100 = complete control), Goosegrass ([5]; 62 g ai/ha, preemergence): 60; Plant response rating, Goosegrass [5, 27]: 90; Rice plant response rating [6, 26]: 0; Rice plant response rating ([6]; 125 g ai/ha, scale of 0 to 100, 0 is no effect, 100 is complete control): 15
6 | CCn1nc(C(C)(C)C)cc1C(=O)Nc1cccc(C(=O)NCC(C)C)c1 [Compound 61] |  |  |  |  |  |  |  |  |  |  |  |  | 0 | 60 | 70 | 95 | 0 | 10 | 40 | 95 | Plant response rating, Barnyardgrass [7, 28]: 35; Plant response rating, Barnyardgrass [7, 29]: 90; Barnyardgrass plant response rating [7, 30]: 40; Barnyardgrass plant response rating [7, 29]: 75; Plant response rating, Crabgrass, Large [8, 28]: 30; Plant response rating, Crabgrass, Large [8, 29]: 45; Crabgrass, Large plant response rating [8, 30]: 75; Crabgrass, Large plant response rating [8, 29]: 90; Plant response rating, Pigweed [9, 28]: 85; Plant response rating, Pigweed [9, 29]: 95; Pigweed plant response rating [9, 30]: 95; Pigweed plant response rating [9, 29]: 65; Plant response rating, Blackgrass [1, 18]: 0; Plant response rating (0 = no effect, 100 = complete control), Bermudagrass ([3]; 62 g ai/ha, preemergence): 10; Plant response rating, Bermudagrass [3, 27]: 80; Plant response rating (0 = no effect, 100 = complete control), Cupgrass, Woolly ([4]; 62 g ai/ha, preemergence): 0; Plant response rating, Cupgrass, Woolly [4, 27]: 0; Plant response rating (0 = no effect, 100 = complete control), Goosegrass ([5]; 62 g ai/ha, preemergence): 0; Plant response rating, Goosegrass [5, 27]: 70
